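96-well plates; 48 h exposure; 5 concentrations. Endpoints by linear interpolation between flanking doses. Not reached: highest tested concentration assigned. GI50 is the concentration that inhibits growth by half.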 Calls of active or inactive are those of the source. Rule as the data show it: active = GI50 up to about 1.1 µM and inactive = higher.

Among the test systems are 786-0; A549; DU-145; EKVX; HCC 2998; HCT-15; M14; MCF7; MDA-MB-435; MOLT-4; NCI/ADR-RES; OVCAR-3; OVCAR-5; RXF 393; SF-268; SK-OV-3; SN12C; T47D; UO-31.
Test in all cases: NCI tumour cell line growth inhibition, 48 h

As to `COc1ccc(OC)c2c(/C=C/c3ccc(N(C)C)cc3)ccnc12`, the GI50 is 4.01 µM (inactive) with 786-0; > 10 µM (inactive) with A549; > 10 µM (inactive) in the experiment with DU-145; > 10 µM (inactive) with EKVX; > 10 µM (inactive) with HCC 2998; more than 10 µM in the experiment with HCT-15. Further, the GI50 in the experiment on M14 is 7.36 µM (inactive); in the experiment on MCF7, 3.52 µM (inactive); with MDA-MB-435 it was 5.21 µM (inactive); with MOLT-4, 6.68 µM (inactive); in the experiment on NCI/ADR-RES, > 10 µM (inactive); in the experiment on OVCAR-3, > 10 µM (inactive). Besides, the GI50 is > 10 µM (inactive) in the experiment on OVCAR-5; > 10 µM (inactive) in the experiment on RXF 393; > 10 µM (inactive) in the experiment on SF-268; > 10 µM (inactive) in the experiment on SK-OV-3; 8.05 µM (inactive) in the experiment with SN12C; > 10 µM (inactive) with T47D. Besides, the GI50 in the experiment with UO-31 was 4.67 µM (inactive).
Regarding `COC(=O)C1=C(O)C(C(=O)OC)[C@]2(O)[C@H](C(=O)OC)[C@H]1C[C@@H](c1ccc(Cl)cc1Cl)[C@H]2C(=O)OC` (some centres undefined), the GI50 in the experiment on 786-0 is 26.3 µM (inactive); with A549 it was 4.36 µM (inactive); in the experiment on DU-145 it was 6.68 µM (inactive); with EKVX it was 19.1 µM (inactive); in the experiment on HCC 2998, 10.1 µM (inactive); in the experiment with HCT-15 it was 4.91 µM. The GI50 with M14 is 6.24 µM (inactive); in the experiment on MCF7, 4.79 µM (inactive); in the experiment with MDA-MB-435, 4.09 µM (inactive); in the experiment with MOLT-4, 2.48 µM (inactive); in the experiment with NCI/ADR-RES, 3.83 µM (inactive); in the experiment with OVCAR-3 it was 5.14 µM (inactive). Moreover, the GI50 with OVCAR-5 was 17 µM (inactive); in the experiment on RXF 393 it was 7.76 µM (inactive); in the experiment with SF-268, 7.62 µM (inactive); in the experiment with SK-OV-3, 13.2 µM (inactive); in the experiment with SN12C, 3.28 µM (inactive); in the experiment on T47D, 4.83 µM (inactive). Moreover, the GI50 in the experiment with UO-31 was 8.97 µM (inactive).
With `O=C1C(Cl)=C(N2CCOCC2)C(=O)c2c(O)ccc(O)c21`, the GI50 with 786-0 was 0.296 µM (active); in the experiment on A549, 1.98 µM (inactive); with DU-145, 1.53 µM (inactive); with EKVX, 1.46 µM (inactive); in the experiment with HCC 2998, 1.67 µM (inactive); with HCT-15 it was 0.155 µM. In addition, the GI50 with M14 was 0.182 µM (active); in the experiment on MCF7, 0.213 µM (active); with MDA-MB-435 it was 0.204 µM (active); in the experiment with MOLT-4, 1.35 µM (inactive); in the experiment with NCI/ADR-RES it was 0.366 µM (active); with OVCAR-3, 0.385 µM (active). The GI50 in the experiment with OVCAR-5 was 0.497 µM (active); in the experiment with RXF 393, 0.222 µM (active); in the experiment with SF-268, 1.36 µM (inactive); with SK-OV-3 it was 2.81 µM (inactive); with SN12C, 0.207 µM (active); in the experiment with T47D, 0.839 µM (active). In the experiment on UO-31, the GI50 is 0.351 µM (active).
In the case of `c1ccc2c(c1)SCCC2NC1=NCCO1` (centres undefined), the GI50 is > 100 µM (inactive) in the experiment with 786-0; > 100 µM (inactive) in the experiment on A549; > 100 µM (inactive) in the experiment on DU-145; > 100 µM (inactive) in the experiment on EKVX; > 100 µM (inactive) in the experiment on HCC 2998; more than 100 µM with HCT-15. For the same molecule, the GI50 in the experiment on M14, with MCF7, with MDA-MB-435, with MOLT-4, in the experiment on NCI/ADR-RES and in the experiment on OVCAR-3 was > 100 µM (inactive) throughout. Further, the GI50 in the experiment on OVCAR-5, in the experiment with RXF 393, in the experiment with SF-268, in the experiment with SK-OV-3, with SN12C and in the experiment with T47D was > 100 µM (inactive) each time. In addition, the GI50 in the experiment with UO-31 was > 100 µM (inactive).
As for `CC(ON(C(c1ccccc1)C(C)C)C(C)(C)C)c1ccccc1` (centres undefined), the GI50 in the experiment on 786-0 was 16.4 µM (inactive); with A549, 29.6 µM (inactive); in the experiment on DU-145, 18.5 µM (inactive); with EKVX it was 15.4 µM (inactive); with HCC 2998 it was 17.3 µM (inactive); in the experiment with HCT-15, 61.8 µM. Besides, the GI50 with M14 was 22.7 µM (inactive); in the experiment on MCF7 it was 16.4 µM (inactive); in the experiment on MDA-MB-435, 25.5 µM (inactive); with MOLT-4, 15 µM (inactive); in the experiment on NCI/ADR-RES it was 23.1 µM (inactive); in the experiment with OVCAR-3, 16.4 µM (inactive). Besides, the GI50 in the experiment on OVCAR-5 is 16 µM (inactive); with RXF 393, 16.3 µM (inactive); in the experiment on SF-268, 24.4 µM (inactive); in the experiment with SK-OV-3, 39.3 µM (inactive); with SN12C it was 16.8 µM (inactive); with T47D, 25.9 µM (inactive). Moreover, the GI50 with UO-31 was 24.5 µM (inactive).
Turning to `COCC1OC(S(=O)(=O)c2ccccc2)C(O)C(OC)C1OC` (centres undefined), the GI50 with 786-0 is > 100 µM (inactive); with A549 it was > 100 µM (inactive); in the experiment with DU-145, > 100 µM (inactive); with EKVX, > 100 µM (inactive); with HCC 2998 it was > 100 µM (inactive); with HCT-15 it was more than 100 µM. The GI50 with M14, in the experiment with MCF7, in the experiment with MDA-MB-435, in the experiment with MOLT-4, in the experiment on NCI/ADR-RES and with OVCAR-3 was > 100 µM (inactive) throughout. The GI50 with OVCAR-5, in the experiment on RXF 393, with SF-268, in the experiment with SK-OV-3, with SN12C and in the experiment on T47D was > 100 µM (inactive) in each case. Further, the GI50 with UO-31 is > 100 µM (inactive).
Regarding `O=C(CCc1cc(O)cc(O)c1)NCCc1cc(O)cc(O)c1`, the GI50 is > 100 µM (inactive) with 786-0; > 100 µM (inactive) with A549; > 100 µM (inactive) with DU-145; > 100 µM (inactive) in the experiment with EKVX; > 100 µM (inactive) in the experiment on HCC 2998; more than 100 µM in the experiment with HCT-15. Moreover, the GI50 in the experiment with M14, in the experiment on MCF7, in the experiment with MDA-MB-435, with MOLT-4, with NCI/ADR-RES and in the experiment on OVCAR-3 was > 100 µM (inactive) in each case. The GI50 in the experiment with OVCAR-5, with RXF 393, in the experiment on SF-268, in the experiment with SK-OV-3, with SN12C and with T47D was > 100 µM (inactive) throughout. In the experiment on UO-31, the GI50 is > 100 µM (inactive).
For `CN1c2ccccc2C2c3c(O)ccc(O)c3C=C([N+](=O)[O-])C21` (centres undefined), the GI50 in the experiment on 786-0 was 0.519 µM (active); with A549, 1.56 µM (inactive); in the experiment with DU-145, 1.44 µM (inactive); with EKVX, 1.67 µM (inactive); with HCC 2998, 0.716 µM (active); in the experiment on HCT-15, 1.08 µM. Also, the GI50 with M14 is 0.513 µM (active); in the experiment on MCF7 it was 0.155 µM (active); with MDA-MB-435 it was 0.199 µM (active); in the experiment on MOLT-4 it was 0.424 µM (active); in the experiment with NCI/ADR-RES it was 1.04 µM (active); in the experiment on OVCAR-3, 0.0329 µM (active). Moreover, the GI50 with OVCAR-5 is 1.83 µM (inactive); in the experiment with RXF 393, 3.91 µM (inactive); in the experiment with SF-268 it was 0.388 µM (active); in the experiment on SK-OV-3 it was 3.72 µM (inactive); in the experiment on SN12C, 0.312 µM (active); with T47D it was 0.324 µM (active). The GI50 in the experiment with UO-31 was 0.521 µM (active).
As to `Cc1nc2sccn2c1/C=C1/C(=O)Nc2cccc(Cl)c21`, the GI50 in the experiment on 786-0 is > 100 µM (inactive); in the experiment with A549, > 100 µM (inactive); in the experiment with DU-145, > 100 µM (inactive); with EKVX, 79.6 µM (inactive); in the experiment on HCC 2998, > 100 µM (inactive); in the experiment with HCT-15, 47.2 µM. Further, the GI50 with M14 was > 100 µM (inactive); in the experiment with MCF7, 23 µM (inactive); in the experiment with MDA-MB-435, 11.6 µM (inactive); with MOLT-4 it was > 100 µM (inactive); with NCI/ADR-RES, 34.2 µM (inactive); in the experiment on OVCAR-3, > 100 µM (inactive). For the same molecule, the GI50 with OVCAR-5 is 73.5 µM (inactive); with RXF 393, > 100 µM (inactive); in the experiment with SF-268 it was > 100 µM (inactive); with SK-OV-3, > 100 µM (inactive); with SN12C, > 100 µM (inactive); in the experiment with T47D, 38.6 µM (inactive). Moreover, the GI50 in the experiment on UO-31 is > 100 µM (inactive).
As to `O=C1NC2c3c(I)sc(I)c3/C(=N\O)C2O1` (centres undefined), the GI50 was 24.4 µM (inactive) in the experiment with 786-0; 48.9 µM (inactive) with A549; 53.7 µM (inactive) with DU-145; 10.9 µM (inactive) in the experiment with EKVX; 35.1 µM (inactive) in the experiment on HCC 2998; 24.4 µM with HCT-15. Further, the GI50 was 36.8 µM (inactive) with M14; 33.8 µM (inactive) in the experiment with MCF7; 26.5 µM (inactive) with MDA-MB-435; 28.2 µM (inactive) with MOLT-4; 20.4 µM (inactive) in the experiment with NCI/ADR-RES; 18.2 µM (inactive) in the experiment on OVCAR-3. In addition, the GI50 was 30.5 µM (inactive) with OVCAR-5; 12.7 µM (inactive) in the experiment with RXF 393; 24.3 µM (inactive) in the experiment with SF-268; 34.5 µM (inactive) with SK-OV-3; 30.8 µM (inactive) with SN12C; 35.2 µM (inactive) in the experiment with T47D. The GI50 with UO-31 was 15.7 µM (inactive).
For the molecule `CC(C)OP(=O)(OC(C)C)C(Nc1cccc(C(F)(F)F)c1)c1ccccc1` (centres undefined), the GI50 in the experiment on 786-0 was 70.3 µM (inactive); in the experiment with A549 it was 30.5 µM (inactive); in the experiment with DU-145, 77.6 µM (inactive); with EKVX, 33.3 µM (inactive); with HCC 2998 it was 55.6 µM (inactive); in the experiment on HCT-15, 55.5 µM. Moreover, the GI50 in the experiment on M14 was 38.5 µM (inactive); in the experiment on MCF7, 46.9 µM (inactive); in the experiment on MDA-MB-435, 41.6 µM (inactive); in the experiment with MOLT-4, 13.7 µM (inactive); in the experiment with NCI/ADR-RES, 32.7 µM (inactive); in the experiment with OVCAR-3 it was 35.6 µM (inactive). The GI50 is > 100 µM (inactive) in the experiment on OVCAR-5; 49.5 µM (inactive) in the experiment on RXF 393; > 100 µM (inactive) in the experiment with SF-268; > 100 µM (inactive) with SK-OV-3; 37.7 µM (inactive) with SN12C; 35.7 µM (inactive) in the experiment on T47D. For the same molecule, the GI50 with UO-31 was 17.9 µM (inactive).

For the origin of these results see ChEMBL document CHEMBL1201862, “PubChem BioAssay data set” (2004).
